Assay: xn = mol fraction of the nth substance listed
Conditions: 283.15 K, 100 kPa, Liquid, Alternating current cell with electrodes

CCCC[N+]1(C)CCCC1.N#CN=C=[N-] [1-butyl-1-methylpyrrolidinium dicyanamide] + O=C1CCCO1
electrical conductivity [S/m]
Conditions | Frequency=0.003 MHz | Frequency=0.00347222 MHz | Frequency=0.004 MHz | Frequency=0.00446429 MHz | Frequency=0.005 MHz | Frequency=0.005454 MHz | Frequency=0.006 MHz | Frequency=0.00652174 MHz | Frequency=0.00694444 MHz | Frequency=0.0075 MHz
x1 = 0.0463 | – | 1.17 | 1.17 | 1.17 | 1.17 | 1.17 | 1.17 | 1.17 | 1.17 | 1.17
x1 = 0.0987 | – | 1.73 | 1.73 | 1.73 | 1.73 | 1.73 | 1.73 | 1.73 | 1.73 | 1.73
x1 = 0.1449 | – | 1.93 | 1.93 | 1.93 | 1.93 | 1.93 | 1.93 | 1.93 | 1.93 | 1.93
x1 = 0.1859 | 2.028 | 2.028 | 2.028 | 2.028 | 2.028 | 2.028 | 2.028 | 2.028 | 2.028 | 2.028
x1 = 0.2493 | 1.925 | 1.925 | 1.926 | 1.926 | 1.926 | 1.926 | 1.926 | 1.926 | 1.926 | 1.926
x1 = 0.3029 | 1.84 | 1.84 | 1.84 | 1.84 | 1.84 | 1.84 | 1.84 | 1.84 | 1.84 | 1.84
x1 = 0.3845 | 1.66 | 1.66 | 1.66 | 1.66 | 1.66 | 1.66 | 1.66 | 1.66 | 1.66 | 1.66
x1 = 0.4985 | 1.407 | 1.407 | 1.407 | 1.407 | 1.407 | 1.407 | 1.407 | 1.407 | 1.407 | 1.407
x1 = 0.6954 | 1.07 | 1.07 | 1.07 | 1.07 | 1.07 | 1.07 | 1.07 | 1.07 | 1.07 | 1.07
x1 = 0.9013 | 0.849 | 0.849 | 0.849 | 0.849 | 0.849 | 0.849 | 0.849 | 0.849 | 0.849 | 0.849
x1 = 1 | 0.786 | 0.786 | 0.786 | 0.786 | 0.786 | 0.786 | 0.786 | 0.786 | 0.786 | 0.786

From the NIST ThermoML archive (doi:10.1016/j.jct.2015.08.014)
